Tested on: HBV DNA replication in HepAD38 cells
Assay: HBV DNA replication inhibition assay in HepAD38 cells (7 days, PCR of supernatant DNA)
Assay type: cell-based, hepatitis B virus
Conditions: HepAD38 cells, 10 μM, trial 1
Protocol: HepAD38 cells were seeded at 50,000 cells/well in collagen-coated 96-well plates. […] The experiment lasted 7 days. On day 7, total DNA was purified from the supernatant using a commercially available kit (DNeasy 96 Blood & Tissue kit, Qiagen). The HBV DNA was amplified in a polymerase chain reaction assay using LightCycler 480 II (Roche), as previously described.[63] All samples were tested in duplicate.

SMILES | % HBV DNA Inh. at 10 μM, trial 1 [%]
O=C(Cc1ccc(O)cc1)NCc1nc(-c2cccc(F)c2)c(-c2ccccn2)[nH]1 [GT-42] | < 1
c1ccc(Cn2cc(-c3cccnc3)c(-c3nc(-c4ccccc4)c(-c4ccccc4)[nH]3)n2)cc1 [GT-34] | < 1
O=C(NCCN1CCOCC1)c1ccc2nc(-c3ccccc3)c(-c3ccccc3)nc2c1 [GT-36] | 11
CC(=O)N1CCC(NCc2nc(-c3ccc(C)cc3)c(-c3ccccn3)[nH]2)CC1 [GT-44] | 37
CCN1CCN(C(=O)c2ccc(-c3nc4ccccc4nc3-c3ccccc3)cc2)CC1 [GT-30] | < 1
Cc1ccc(-c2nc(CNC(=O)C3CCOC3)[nH]c2-c2ccccn2)cc1 (centres unmarked) [GT-43] | 4.7
COc1ccc(F)c(Cn2cnc(-c3ccccc3)c2-c2c[nH]cn2)c1F [GT-38] | 45
COc1cc(OC)c2cc(-c3nc4ccccc4[nH]3)c(-c3ccc(C)cc3)nc2c1 [GT-35] | 36
CCN(CC)CCCNc1cc(OC)c(Nc2ccccc2)c2cccnc12 [GT-49] | 45
Cc1nc2ccccc2nc1-c1sc2ncccc2c1O [GT-37] | 40

Same assay, conditions: HepAD38 cells, 10 μM, trial 2

SMILES | % HBV DNA Inh. at 10 μM, trial 2 [%]
O=C(Cc1ccc(O)cc1)NCc1nc(-c2cccc(F)c2)c(-c2ccccn2)[nH]1 [GT-42] | < 1
c1ccc(Cn2cc(-c3cccnc3)c(-c3nc(-c4ccccc4)c(-c4ccccc4)[nH]3)n2)cc1 [GT-34] | < 1
O=C(NCCN1CCOCC1)c1ccc2nc(-c3ccccc3)c(-c3ccccc3)nc2c1 [GT-36] | 11
CC(=O)N1CCC(NCc2nc(-c3ccc(C)cc3)c(-c3ccccn3)[nH]2)CC1 [GT-44] | 37
CCN1CCN(C(=O)c2ccc(-c3nc4ccccc4nc3-c3ccccc3)cc2)CC1 [GT-30] | < 1
Cc1ccc(-c2nc(CNC(=O)C3CCOC3)[nH]c2-c2ccccn2)cc1 (centres unmarked) [GT-43] | 4.7
COc1ccc(F)c(Cn2cnc(-c3ccccc3)c2-c2c[nH]cn2)c1F [GT-38] | 45
COc1cc(OC)c2cc(-c3nc4ccccc4[nH]3)c(-c3ccc(C)cc3)nc2c1 [GT-35] | 36
CCN(CC)CCCNc1cc(OC)c(Nc2ccccc2)c2cccnc12 [GT-49] | 45
Cc1nc2ccccc2nc1-c1sc2ncccc2c1O [GT-37] | 40

Same assay, conditions: HepAD38 cells, trial 1; read-out: EC50, trial 1

SMILES | EC50 [µM]
O=C(Cc1ccc(O)cc1)NCc1nc(-c2cccc(F)c2)c(-c2ccccn2)[nH]1 [GT-42] | > 10
c1ccc(Cn2cc(-c3cccnc3)c(-c3nc(-c4ccccc4)c(-c4ccccc4)[nH]3)n2)cc1 [GT-34] | > 10
O=C(NCCN1CCOCC1)c1ccc2nc(-c3ccccc3)c(-c3ccccc3)nc2c1 [GT-36] | > 10
CC(=O)N1CCC(NCc2nc(-c3ccc(C)cc3)c(-c3ccccn3)[nH]2)CC1 [GT-44] | > 10
CCN1CCN(C(=O)c2ccc(-c3nc4ccccc4nc3-c3ccccc3)cc2)CC1 [GT-30] | > 10
Cc1ccc(-c2nc(CNC(=O)C3CCOC3)[nH]c2-c2ccccn2)cc1 (centres unmarked) [GT-43] | > 10
COc1ccc(F)c(Cn2cnc(-c3ccccc3)c2-c2c[nH]cn2)c1F [GT-38] | > 10
COc1cc(OC)c2cc(-c3nc4ccccc4[nH]3)c(-c3ccc(C)cc3)nc2c1 [GT-35] | > 10
CCN(CC)CCCNc1cc(OC)c(Nc2ccccc2)c2cccnc12 [GT-49] | > 10
Cc1nc2ccccc2nc1-c1sc2ncccc2c1O [GT-37] | > 10

Same assay, conditions: HepAD38 cells, trial 2; read-out: EC50, trial 2

SMILES | EC50 [µM]
O=C(Cc1ccc(O)cc1)NCc1nc(-c2cccc(F)c2)c(-c2ccccn2)[nH]1 [GT-42] | > 10
c1ccc(Cn2cc(-c3cccnc3)c(-c3nc(-c4ccccc4)c(-c4ccccc4)[nH]3)n2)cc1 [GT-34] | > 10
O=C(NCCN1CCOCC1)c1ccc2nc(-c3ccccc3)c(-c3ccccc3)nc2c1 [GT-36] | > 10
CC(=O)N1CCC(NCc2nc(-c3ccc(C)cc3)c(-c3ccccn3)[nH]2)CC1 [GT-44] | > 10
CCN1CCN(C(=O)c2ccc(-c3nc4ccccc4nc3-c3ccccc3)cc2)CC1 [GT-30] | > 10
Cc1ccc(-c2nc(CNC(=O)C3CCOC3)[nH]c2-c2ccccn2)cc1 (centres unmarked) [GT-43] | > 10
COc1ccc(F)c(Cn2cnc(-c3ccccc3)c2-c2c[nH]cn2)c1F [GT-38] | > 10
COc1cc(OC)c2cc(-c3nc4ccccc4[nH]3)c(-c3ccc(C)cc3)nc2c1 [GT-35] | > 10
CCN(CC)CCCNc1cc(OC)c(Nc2ccccc2)c2cccnc12 [GT-49] | > 10
Cc1nc2ccccc2nc1-c1sc2ncccc2c1O [GT-37] | > 10

Tested on: human peripheral blood mononuclear (PBM) cells
Assay: MTT cytotoxicity, PBM cells
Assay type: cell-based
Conditions: not given
Protocol: (§1) Human peripheral blood mononuclear (PBM), T lymphoblast CEM-CCRF (herein referred to as CEM cells), African green monkey kidney (Vero), or human liver carcinoma (HepG2) cells were tested via MTT assay using the CellTiter 96 Non-Radioactive Cell Proliferation (Promega) kit as previously described.[63]

SMILES | CC50 [µM]
O=C(Cc1ccc(O)cc1)NCc1nc(-c2cccc(F)c2)c(-c2ccccn2)[nH]1 [GT-42] | 3.5
c1ccc(Cn2cc(-c3cccnc3)c(-c3nc(-c4ccccc4)c(-c4ccccc4)[nH]3)n2)cc1 [GT-34] | 59
O=C(NCCN1CCOCC1)c1ccc2nc(-c3ccccc3)c(-c3ccccc3)nc2c1 [GT-36] | 10
CC(=O)N1CCC(NCc2nc(-c3ccc(C)cc3)c(-c3ccccn3)[nH]2)CC1 [GT-44] | 64
CCN1CCN(C(=O)c2ccc(-c3nc4ccccc4nc3-c3ccccc3)cc2)CC1 [GT-30] | 60
Cc1ccc(-c2nc(CNC(=O)C3CCOC3)[nH]c2-c2ccccn2)cc1 (centres unmarked) [GT-43] | 42
COc1ccc(F)c(Cn2cnc(-c3ccccc3)c2-c2c[nH]cn2)c1F [GT-38] | > 100
COc1cc(OC)c2cc(-c3nc4ccccc4[nH]3)c(-c3ccc(C)cc3)nc2c1 [GT-35] | > 100
CCN(CC)CCCNc1cc(OC)c(Nc2ccccc2)c2cccnc12 [GT-49] | 27
Cc1nc2ccccc2nc1-c1sc2ncccc2c1O [GT-37] | > 100

Same assay, conditions: 100 µM

SMILES | percent cytotoxicity (cell growth inhibition) at 100 µM [%]
COc1ccc(F)c(Cn2cnc(-c3ccccc3)c2-c2c[nH]cn2)c1F [GT-38] | 24
COc1cc(OC)c2cc(-c3nc4ccccc4[nH]3)c(-c3ccc(C)cc3)nc2c1 [GT-35] | 14
Cc1nc2ccccc2nc1-c1sc2ncccc2c1O [GT-37] | 48

Tested on: T lymphoblast CEM-CCRF (CEM) cells
Assay: MTT cytotoxicity, CEM cells
Assay type: cell-based, human
Conditions: not given
Protocol: as §1

SMILES | CC50 [µM]
O=C(Cc1ccc(O)cc1)NCc1nc(-c2cccc(F)c2)c(-c2ccccn2)[nH]1 [GT-42] | 1.4
c1ccc(Cn2cc(-c3cccnc3)c(-c3nc(-c4ccccc4)c(-c4ccccc4)[nH]3)n2)cc1 [GT-34] | 11
O=C(NCCN1CCOCC1)c1ccc2nc(-c3ccccc3)c(-c3ccccc3)nc2c1 [GT-36] | 18
CC(=O)N1CCC(NCc2nc(-c3ccc(C)cc3)c(-c3ccccn3)[nH]2)CC1 [GT-44] | 63
CCN1CCN(C(=O)c2ccc(-c3nc4ccccc4nc3-c3ccccc3)cc2)CC1 [GT-30] | 32
Cc1ccc(-c2nc(CNC(=O)C3CCOC3)[nH]c2-c2ccccn2)cc1 (centres unmarked) [GT-43] | 30
COc1ccc(F)c(Cn2cnc(-c3ccccc3)c2-c2c[nH]cn2)c1F [GT-38] | 62
COc1cc(OC)c2cc(-c3nc4ccccc4[nH]3)c(-c3ccc(C)cc3)nc2c1 [GT-35] | > 100
CCN(CC)CCCNc1cc(OC)c(Nc2ccccc2)c2cccnc12 [GT-49] | 9.4
Cc1nc2ccccc2nc1-c1sc2ncccc2c1O [GT-37] | > 100

Same assay, conditions: 100 µM

SMILES | % cytotoxicity at 100 µM (MTT), CEM cells [%]
COc1cc(OC)c2cc(-c3nc4ccccc4[nH]3)c(-c3ccc(C)cc3)nc2c1 [GT-35] | 49
Cc1nc2ccccc2nc1-c1sc2ncccc2c1O [GT-37] | < 1

Tested on: African green monkey kidney (Vero) cells
Assay: MTT cytotoxicity, Vero cells
Assay type: cell-based
Conditions: Vero cells
Protocol: as §1

SMILES | CC50 [µM]
O=C(Cc1ccc(O)cc1)NCc1nc(-c2cccc(F)c2)c(-c2ccccn2)[nH]1 [GT-42] | 13
c1ccc(Cn2cc(-c3cccnc3)c(-c3nc(-c4ccccc4)c(-c4ccccc4)[nH]3)n2)cc1 [GT-34] | 14
O=C(NCCN1CCOCC1)c1ccc2nc(-c3ccccc3)c(-c3ccccc3)nc2c1 [GT-36] | 31
CC(=O)N1CCC(NCc2nc(-c3ccc(C)cc3)c(-c3ccccn3)[nH]2)CC1 [GT-44] | > 100
CCN1CCN(C(=O)c2ccc(-c3nc4ccccc4nc3-c3ccccc3)cc2)CC1 [GT-30] | 81
Cc1ccc(-c2nc(CNC(=O)C3CCOC3)[nH]c2-c2ccccn2)cc1 (centres unmarked) [GT-43] | 19
COc1ccc(F)c(Cn2cnc(-c3ccccc3)c2-c2c[nH]cn2)c1F [GT-38] | 48
COc1cc(OC)c2cc(-c3nc4ccccc4[nH]3)c(-c3ccc(C)cc3)nc2c1 [GT-35] | 42
CCN(CC)CCCNc1cc(OC)c(Nc2ccccc2)c2cccnc12 [GT-49] | 16
Cc1nc2ccccc2nc1-c1sc2ncccc2c1O [GT-37] | 19

Same assay, conditions: Vero cells, 100 µM

SMILES | % cytotoxicity (MTT) at 100 µM [%]
CC(=O)N1CCC(NCc2nc(-c3ccc(C)cc3)c(-c3ccccn3)[nH]2)CC1 [GT-44] | 54

Tested on: human liver carcinoma (HepG2) cells
Assay: MTT cytotoxicity, HepG2 cells
Assay type: cell-based
Conditions: HepG2 cells
Protocol: as §1

SMILES | CC50 [µM]
O=C(Cc1ccc(O)cc1)NCc1nc(-c2cccc(F)c2)c(-c2ccccn2)[nH]1 [GT-42] | 5.4
c1ccc(Cn2cc(-c3cccnc3)c(-c3nc(-c4ccccc4)c(-c4ccccc4)[nH]3)n2)cc1 [GT-34] | 16
O=C(NCCN1CCOCC1)c1ccc2nc(-c3ccccc3)c(-c3ccccc3)nc2c1 [GT-36] | 29
CC(=O)N1CCC(NCc2nc(-c3ccc(C)cc3)c(-c3ccccn3)[nH]2)CC1 [GT-44] | 70
CCN1CCN(C(=O)c2ccc(-c3nc4ccccc4nc3-c3ccccc3)cc2)CC1 [GT-30] | 34
Cc1ccc(-c2nc(CNC(=O)C3CCOC3)[nH]c2-c2ccccn2)cc1 (centres unmarked) [GT-43] | 29
COc1ccc(F)c(Cn2cnc(-c3ccccc3)c2-c2c[nH]cn2)c1F [GT-38] | 24
COc1cc(OC)c2cc(-c3nc4ccccc4[nH]3)c(-c3ccc(C)cc3)nc2c1 [GT-35] | 63
CCN(CC)CCCNc1cc(OC)c(Nc2ccccc2)c2cccnc12 [GT-49] | 17
Cc1nc2ccccc2nc1-c1sc2ncccc2c1O [GT-37] | 24

— publication PMC11019538, “Biophysics-Guided Lead Discovery of HBV Capsid Assembly Modifiers” (ACS Infectious Diseases, 2024)
